Mass density data for 6 molecules are collected here from the NIST ThermoML archive (doi:10.1021/je100069q).

For orientation: mass density means mass per unit of volume.

SMILES strings stand for the structures. Numbers after ± are expanded uncertainties.

The conditions of the data set: 101.33 kPa, Liquid.

Regarding `Cc1ccccc1O` [2-methylphenol], for the setting “308.15 K”, the mass density is 1032.73 ± 0.61 kg/m3. As to `Cc1ccc(O)cc1` [4-methylphenol], the mass density (313.15 K) turned out to be 1018.8 ± 0.27 kg/m3. In the case of `Cc1cccc(O)c1` [3-methylphenol], the mass density (293.15 K) was 1033.85 ± 0.28 kg/m3.

Consider `Oc1ccccc1` [phenol], for which the mass density (313.15 K) was determined as 1058.3 ± 0.35 kg/m3. As to `Cc1ccccc1` [toluene], the mass density (293.15 K) amounted to 866.78 ± 0.31 kg/m3.

In the case of `CCc1ccccc1` [ethylbenzene], the mass density (298.15 K) was 862.59 ± 0.3 kg/m3.
